The target of experiment [1] is T1, CDK2 (Homo sapiens, UniProt P24941).
T1 construct: High-Throughput Measurement of Cellular Endogenous CDK2; endogenous in cells; host or cells: OVCAR3
Briefly: High-throughput HTRF measurement of cellular endogenous CDK2 level (degradation, DC50/Dmax) in OVCAR3 cells, 6 h. To be noted: 6 h compound treatment, HTRF total CDK2, read-out: DC50_OVCAR3_6h. Format: cell-based. Here is the method:
High-Throughput Measurement of Cellular Endogenous CDK2
Effects of compounds on cellular CDK2 level were monitored by a high-throughput HTRF assay.
To determine half maximal degradation concentration (DC50) and maximum degradation level (Dmax) values of compounds, cellular CDK2 level was measured in 96-well format using HTRF total CDK2 cellular kit (Cat #64CDK2TPEG) from Cisbio.
On Day 1, OVCAR3 cells were seeded into 96-well tissue-culture treated plates at 20,000 cells/well in 200 μL and incubated overnight at 37° C. in CO2 atmosphere. On Day 2 cells were treated with compounds at concentration ranging from 0.03 to 1,000 nM using HP D300 digital dispenser. 6 hours after compound treatment, cell culture media was removed by flicking the plate and tapping the plate against clean paper towel. Immediately 30 μL 1× lysis buffer was supplemented from the kit and added to each well and the plate is incubated at room temperature on shaker for 30 min. After homogenization by pipetting up and down, 8 μL cell lysate from 96-well cell culture plate was transferred to 384-well small volume white detection plate. 2 μL premixed detection solution was added and the plate is covered with sealer. To prepare the detection solution, d2 conjugated-CDK2 antibody and Eu-cryptate conjugated CDK2 antibody were diluted into detection buffer following manufacturer's instruction. Detection plates were incubated overnight at room temperature and read on ClarioStar (BMG Labtech) in TR-FRET mode (665 nM and 620 nM). The TR-FRET ratio (665 nM/620 nM) was plotted against the compound concentration and normalized to DMSO controls (0% degradation) and lysis buffer controls (100% degradation). Half maximal degradation concentration (DC 50) […] were calculated with a four-parameter logistic fit using GraphPad Prism (version 8; La Jolla, CA).
In the table below, AA indicates a DC50 of greater than or equal to 0.5 nM but less than 1 nM; A indicates a DC50 of greater than or equal to 1 nM but less than or equal to 10 nM; B indicates a DC50 of greater than 10 nM but less than or equal to 100 nM; C indicates a DC50 of greater than 100 nM but less than or equal to 1 μM; and D indicates a DC50 of greater than 1 μM […] but less than or equal to 5 μM. NT means not tested.

In experiment [2] the target is T1, CDK2. Briefly: Inhibition of CDK2: phospho-Rb (S807/811) HTRF measurement in OVCAR3 cells, 24 h. Format: cell-based. The settings on record: 24 h compound treatment, read-out: pRB_OVCAR3_24h. Put shortly: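 IC50 came from a four-parameter fit of DMSO-normalized TR-FRET ratios (665/620 nm) reporting phospho-Rb S807/811. Lysates were taken from OVCAR3 cultures treated 24 h with compound (0.3 to 10,000 nM) and incubated 4 h at room temperature with the antibody pair.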

Consider `CN(CCCN1CCC(c2cccc3c2n(C)c(=O)n3C2CCC(=O)NC2=O)CC1)c1cccc(S(=O)(=O)N2CCC(Nc3ncc(C(F)(F)F)cn3)CC2)c1` (stereo not drawn) [Example 190, 3-(3-methyl-4-(1-(3-(methyl(3-((4-((5-(trifluoromethyl)pyrimidin-2-yl)amino)piperidin-1-yl)sulfonyl)phenyl)amino)propyl)piperidin-4-yl)-2-oxo-2,3-dihydro-1H-benzo[d]imidazol-1-yl)piperidine-2,6-dione], for which, at CDK2 [1], the DC50 was 10 to 100 nM. In addition, the IC50 on CDK2 [2] was in the range of 1 to 100 nM.

With `Cn1nc(N2CCC(=O)NC2=O)c2ccc(C3CCN(Cc4ccc(S(=O)(=O)N5CCC(Nc6ncc(C(F)(F)F)cn6)CC5)cc4)CC3)cc21` [Example 64, 1-(1-methyl-6-(1-(4-((4-((5-(trifluoro-methyl)pyrimidin-2-yl)amino)piperidin-1-yl)sulfonyl)benzyl)piperidin-4-yl)-1H-indazol-3-yl)dihydropyrimidine-2,4(1H,3H)-dione], the DC50 on CDK2 [1] is 1 to 10 nM. The IC50 at CDK2 [2] fell in the range of 1 to 100 nM.

Consider `Cn1c(=O)n(C2CCC(=O)NC2=O)c2cccc(C3CCN(CC4CCN(c5cc(F)cc(S(=O)(=O)N6CCC(Nc7ncc(OC(F)F)cn7)CC6)c5)CC4)CC3)c21` (stereo not drawn) [Example 174, 3-(4-(1-((1-(3-((4-((5-(difluoromethoxy)pyrimidin-2-yl)amino)piperidin-1-yl)sulfonyl)-5-fluorophenyl)piperidin-4-yl)methyl)piperidin-4-yl)-3-methyl-2-oxo-2,3-dihydro-1H-benzo[d]imidazol-1-yl)piperidine-2,6-dione], for which, at CDK2 [1], the DC50 lay within 1 to 10 nM. Besides, the IC50 on CDK2 [2] was in the range of 1 to 100 nM.

With `Cn1nc(N2CCC(=O)NC2=O)c2ccc(C3CCN(CC4CCN(c5cccc(S(=O)(=O)N6CC[C@H](Nc7ncc(C(F)(F)F)cn7)[C@H](F)C6)c5)CC4)CC3)cc21` (racemic) [Example 223, Rac-1-(6-(1-((1-(3-(((3R,4S)-3-fluoro-4-((5-(trifluoromethyl)pyrimidin-2-yl)amino)piperidin-1-yl)sulfonyl)phenyl)piperidin-4-yl)methyl)piperidin-4-yl)-1-methyl-1H-indazol-3-yl)dihydropyrimidine-2,4(1H,3H)-dione], the DC50 at CDK2 [1] is 1 to 10 nM. Moreover, the IC50 at CDK2 [2] was 1 to 100 nM.

For the compound `Cn1nc(N2CCC(=O)NC2=O)c2ccc(C3CCC(CN4CCN(c5cccc(S(=O)(=O)N6CCC(Nc7ncc(Cl)cn7)CC6)c5)CC4)CC3)cc21` (stereo not drawn) [Example 224, 1-(6-(4-((4-(3-((4-((5-chloropyrimidin-2-yl)amino)piperidin-1-yl)sulfonyl)phenyl)piperazin-1-yl)methyl)cyclohexyl)-1-methyl-1H-indazol-3-yl)dihydropyrimidine-2,4(1H,3H)-dione], the DC50 on CDK2 [1] is 10 to 100 nM. In addition, the IC50 on CDK2 [2] was in the range of 1 to 100 nM.

With `O=C1CCC(N2Cc3cc(N4CCN(Cc5cccc(S(=O)(=O)N6CCC(Nc7ncc(OC(F)F)cn7)CC6)c5)CC4)c(F)cc3C2=O)C(=O)N1` (stereo not drawn) [Example 74, 3-(5-(4-(3-((4-((5-(difluoromethoxy)-pyrimidin-2-yl)amino)piperidin-1-yl)sulfonyl)benzyl)piperazin-1-yl)-6-fluoro-1-oxoisoindolin-2-yl)piperidine-2,6-dione], at CDK2 [1], the DC50 is 1 to 10 nM. The IC50 at CDK2 [2] lay within 100 to 500 nM.

With `Cn1nc(N2CCC(=O)NC2=O)c2ccc(C3CCN(Cc4cccc(S(=O)(=O)N5CCC(Nc6ncc(OC(F)F)cn6)CC5)c4)CC3)c(F)c21` [Example 93, 1-(6-(1-(3-((4-((5-(difluoromethoxy)-pyrimidin-2-yl)amino)piperidin-1-yl)sulfonyl)benzyl)piperidin-4-yl)-7-fluoro-1-methyl-1H-indazol-3-yl)dihydropyrimidine-2,4(1H,3H)-dione], at CDK2 [1], the DC50 was 1 to 10 nM. Also, the IC50 on CDK2 [2] was in the range of 1 to 100 nM.

Take `Cc1ncsc1-c1ccc([C@H](C)NC(=O)[C@@H]2C[C@@H](O)CN2C(=O)[C@H](NC(=O)C2CCN(Cc3cccc(S(=O)(=O)N4CCC(Nc5ncc(C(F)(F)F)cn5)CC4)c3)CC2)C(C)(C)C)cc1` [Example 7, N-((R)-1-((2S,4R)-4-hydroxy-2-(((S)-1-(4-(4-methylthiazol-5-yl)phenyl)ethyl)-carbamoyl)pyrrolidin-1-yl)-3,3-dimethyl-1-oxobutan-2-yl)-1-(3-((4-((5-(trifluoro-methyl)pyrimidin-2-yl)amino)piperidin-1-yl)sulfonyl)benzyl) piperidine-4-carboxamide]: on CDK2 [1], the DC50 is 100 to 1000 nM. The IC50 on CDK2 [2] was 100 to 500 nM.

Regarding `Cn1nc(N2CCC(=O)NC2=O)c2ccc(C3CCC(CN4CCC(c5cccc(S(=O)(=O)N6CCC(Nc7ncc(C(F)(F)F)cn7)CC6)c5)CC4)CC3)cc21` (stereo not drawn) [Example 238, 1-(1-methyl-6-(4-((4-(3-((4-((5-(trifluoromethyl)pyrimidin-2-yl)amino)piperidin-1-yl)sulfonyl)phenyl)piperidin-1-yl)methyl)cyclohexyl)-1H-indazol-3-yl)dihydropyrimidine-2,4(1H,3H)-dione], the DC50 on CDK2 [1] is 10 to 100 nM. In addition, on CDK2 [2], the IC50 was 1 to 100 nM.

Regarding `Cn1nc(N2CCC(=O)NC2=O)c2ccc(C3CCN(CC4CCN(c5ccc(S(=O)(=O)N6CCC(Nc7ncc(C(F)(F)F)cn7)CC6)cc5)CC4)CC3)cc21` [Example 165, 1-(1-methyl-6-(1-((1-(4-((4-((5-(trifluoromethyl)pyrimidin-2-yl)amino)piperidin-1-yl)sulfonyl)phenyl)piperidin-4-yl)methyl)piperidin-4-yl)-1H-indazol-3-yl)dihydropyrimidine-2,4(1H,3H)-dione], the DC50 on CDK2 [1] fell in the range of 10 to 100 nM. Moreover, the IC50 on CDK2 [2] is 1 to 100 nM.

With `Cn1nc(N2CCC(=O)NC2=O)c2ccc(C3CCN(CC#Cc4cccc(S(=O)(=O)N5CCC(Nc6ncc(Cl)cn6)CC5)c4)CC3)cc21` [Example 226, 1-(6-(1-(3-(3-((4-((5-chloropyrimidin-2-yl)amino)piperidin-1-yl)sulfonyl)phenyl)prop-2-yn-1-yl)piperidin-4-yl)-1-methyl-1H-indazol-3-yl)dihydropyrimidine-2,4(1H,3H)-dione], the DC50 on CDK2 [1] was in the range of 10 to 100 nM. Also, the IC50 at CDK2 [2] was in the range of 100 to 500 nM.

Turning to `Cn1nc(N2CCC(=O)NC2=O)c2ccc(C3CCN(CC4CCN(c5cc(F)cc(S(=O)(=O)N6CCC(Nc7ncc(Cl)cn7)CC6)c5)CC4)CC3)cc21` [Example 147, 1-(6-(1-((1-(3-((4-((5-chloropyrimidin-2-yl)amino)piperidin-1-yl)sulfonyl)-5-fluorophenyl)piperidin-4-yl)methyl)piperidin-4-yl)-1-methyl-1H-indazol-3-yl)dihydropyrimidine-2,4(1H,3H)-dione], on CDK2 [1], the DC50 lay in the range of 1 to 10 nM. Further, on CDK2 [2], the IC50 was 1 to 100 nM.

Take `Cn1nc(N2CCC(=O)NC2=O)c2ccc(C3CCN(CC4CCN(c5cc(S(=O)(=O)N6CCC(Nc7ncc(Cl)cn7)CC6)ccc5C#N)CC4)CC3)cc21` [Example 148, 4-((4-((5-chloropyrimidin-2-yl)amino)piperidin-1-yl)sulfonyl)-2-(4-((4-(3-(2,4-dioxotetrahydropyrimidin-1(2H)-yl)-1-methyl-1H-indazol-6-yl)piperidin-1-yl)methyl)piperidin-1-yl)benzonitrile]: the DC50 on CDK2 [1] lay in the range of 10 to 100 nM. For the same compound, at CDK2 [2], the IC50 was 1 to 100 nM.

Turning to `Cn1nc(N2CCC(=O)NC2=O)c2ccc(C3CCN(CC4CCN(c5cccc(S(=O)(=O)N6CCC(Nc7ncc(OC(F)(F)F)cn7)CC6)c5)CC4)CC3)cc21` [Example 115, 1-(1-methyl-6-(1-((1-(3-((4-((5-(trifluoro-methoxy)pyrimidin-2-yl)amino)piperidin-1-yl)sulfonyl)phenyl)piperidin-4-yl)methyl)piperidin-4-yl)-1H-indazol-3-yl)dihydropyrimidine-2,4(1H,3H)-dione], the DC50 at CDK2 [1] lay within 10 to 100 nM. For the same compound, the IC50 at CDK2 [2] fell in the range of 1 to 100 nM.

With `Cc1ncsc1-c1ccc([C@H](C)NC(=O)[C@@H]2C[C@@H](O)CN2C(=O)[C@@H](NC(=O)C2(F)CC2)C(C)(C)SCC2CCN(Cc3cccc(S(=O)(=O)N4CCC(Nc5ncc(C(F)(F)F)cn5)CC4)c3)CC2)cc1` [Example 8, (2S,4R)-1-((R)-2-(1-fluorocyclopropane-1-carboxamido)-3-methyl-3-(((1-(3-((4-((5-(trifluoromethyl)pyrimidin-2-yl)amino)-piperidin-1-yl)sulfonyl)benzyl)piperidin-4-yl)methyl)thio)butanoyl)-4-hydroxy-N-((S)-1-(4-(4-methylthiazol-5-yl)phenyl)-ethyl)pyrrolidine-2-carboxamide], on CDK2 [1], the DC50 was in the range of 1 to 10 nM. Besides, the IC50 at CDK2 [2] fell in the range of 100 to 500 nM.

For the origin of these results see patent publication US20260167623A1 (NIKANG THERAPEUTICS, INC., priority 2022, published 2026).
